For experiment [1], the system named is antigen peptide (peptide-conjugated BSA). Description: Antibody titer in blood of immunized mice by ELISA against antigen peptide. The experiment is classed as in vivo, mouse. The settings on record: Example 1: C57BL/6J mice, KLH-antigen complex s.c., Freund's adjuvant, serum 2 weeks after booster (total 4 weeks). From the text: (§1) C57BL/6J male mice aged 8 weeks were purchased from Charles River Laboratories Japan, Inc. After the delivery, the mice were reared in an environment where the room temperature and the light and dark cycles were maintained, and were provided with feed and water ad libitum. As a candidate sequence leading to activation of helper T cells by MHC class II, two peptide sequences: MTGSAADTHR (SEQ ID NO: 4; hereinafter, a peptide composed of the amino acid sequence is referred to as “MTG peptide”) and RRRQASPPRR (SEQ ID NO: 5; hereinafter, a peptide composed of the amino acid sequence is referred to as “RRR peptide”), each of which is not common to VASH1 in the VASH2 sequence were selected (FIG. 1). With respect to these peptides, peptide vaccines using KLH as a carrier were constructed. Note that for the conjugation of each peptide with KLH, a glutaraldehyde method was used. When the amount of the peptide introduced into KLH was measured for each of the obtained peptide vaccines, the amount of MTG was 66 to 70 nmol/mg of the conjugate, and the amount of RRR was 62 to 76 nmol/mg of the conjugate. Subsequently, 5 μg of KLH (control) and 20 μg of each of the KLH-antigen complexes were prepared with physiological saline so that the total amount was 50 μL, respectively, whereby KLH-mixed solutions were obtained. To each of the KLH-mixed solutions (50 μL), an equal amount of complete Freund's adjuvant was added. The obtained mixture was subcutaneously administered to the mice, whereby initial immunization was carried out. After 2 weeks from the administration, booster immunization was carried out by subcutaneously administering a mixture of each of the KLH-mixed solutions (50 μL) and an equal amount of incomplete Freund's adjuvant to the mice. Further, after 2 weeks from the booster immunization (after a total of 4 weeks), an increase in the antibody titer in the blood of each of the immunized mice was verified by ELISA.
The measurement of the antibody titer by ELISA was carried out as follows. After 2 weeks from the booster immunization (after a total of 4 weeks), the blood was collected from the facial vein of each of the immunized mice, and the serum separated from the blood was subjected to ELISA. By using 50 mM carbonate buffer, peptide-conjugated BSA was prepared at 10 μg/mL, and further a recombinant VASH2 protein was prepared at 1 μg/mL, each of which was added at 50 μL/well, and the resultant was left to stand overnight at 4° C. After the solution in each well was removed, 5% skim milk was added at 150 μL/well. […] After 30 minutes, the reaction was stopped by adding 0.5 N H2SO4 at 50 μL/well, and an absorbance (450 nm) was measured using a microplate reader.
A general note: ELISA stands for enzyme-linked immunosorbent assay.

The test system of experiment [2] is recombinant human VASH2 protein. Description: Antibody titer in blood of immunized mice by ELISA against recombinant VASH2 protein. The settings on record: Example 1: C57BL/6J mice, KLH-antigen complex s.c., Freund's adjuvant, serum 2 weeks after booster (total 4 weeks). The class given is in vivo, mouse.
Description: as §1
The measurement of the antibody titer by ELISA was carried out as follows. After 2 weeks from the booster immunization (after a total of 4 weeks), the blood was collected from the facial vein of each of the immunized mice, and the serum separated from the blood was subjected to ELISA. By using 50 mM carbonate buffer, peptide-conjugated BSA was prepared at 10 μg/mL, and further a recombinant VASH2 protein was prepared at 1 μg/mL, each of which was added at 50 μL/well, and the resultant was left to stand overnight at 4° C. After the solution in each well was removed, 5% skim milk was added at 150 μL/well. After the resultant was left to stand at room temperature for 2 hours, the solution was removed, and subsequently, a serum sample diluted by 20 to 62500 times with 5% skim milk was added at 50 μL/well, and the resultant was left to stand overnight at 4° C. Subsequently, washing was carried out with PBS (200 μL/well×6 times), and thereafter, a secondary antibody (HRP-conjugated anti-Mouse IgG) diluted by 1000 times with 5% skim milk was added at 50 μL/well. After the resultant was left to stand at room temperature for 3 hours, washing was carried out with PBS (200 μL/well×3 times). Thereafter, tetramethylbenzidine (TMB) was added at 50 μL/well, and the resultant was left to stand at room temperature under light shielding. After 30 minutes, the reaction was stopped by adding 0.5 N H2SO4 at 50 μL/well, and an absorbance (450 nm) was measured using a microplate reader.

The test system of experiment [3] is Lewis lung cancer cells (LLC). Description: Subcutaneous implant model, tumor growth inhibitory effect (LLC). The following applies: immunized C57BL/6J mice, cells implanted s.c. on day 29, measured 14 days after implantation. The experiment is classed as in vivo, mouse. The protocol:
(§2) After 2 weeks from the administration of each peptide vaccine and incomplete Freund's adjuvant in Example 1 (on day 29 after the initial peptide vaccine administration), mouse-derived tumor cells were implanted in an immunized mouse, whereby a subcutaneous implant model was prepared. Specifically, mouse lung cancer cells (Lewis lung cancer cells (LLC)) or mouse melanoma cells (B16F1) (all have C57BL/6J as a genetic background) cultured in a RPMI+10% FBS medium were collected by centrifugation, and a cell suspension (1.0×10^8 cells/mL) was prepared with a serum-free medium, and 0.1 mL (1.0×10^7 cells/animal) of the cell suspension was implanted in a right axillary subcutaneous region of a mouse using a 27G injection needle and a syringe, whereby a subcutaneous implant model of tumor cells was prepared.

Experiment [4] concerns mouse melanoma cells (B16F1). Description: Subcutaneous implant model, tumor growth inhibitory effect (B16F1). The class given is in vivo. The settings on record: immunized C57BL/6J mice, cells implanted s.c. on day 29, measured 14 days after implantation. How it is done:
as §2

The source of these data is patent US11712466B2, “Vaccine composition” (TOHOKU UNIVERSITY, priority 2017, dated 2023).

Ends that are not written are not given here.

On to “RRR peptide vaccine: RRR peptide RRRQASPPRR (SEQ ID NO: 5) conjugated with KLH as carrier by a glutaraldehyde method (also: conjugated with KLH by glutaraldehyde)”, for which the “antibody titer against the antigen peptide” value in experiment [1] was “significant concentration-dependent increase”. The “antibody titer against the recombinant human VASH2 protein” value in experiment [2] is given as “a significant increase in the antibody titer was not confirmed”. In addition, the “tumor size (tumorigenesis), Lewis lung cancer cells” value in experiment [3] is recorded as “could not inhibit tumorigenesis”. For the same substance, in experiment [4], the “tumor size (tumorigenesis), B16F1 melanoma cells” value is listed as “could not inhibit tumorigenesis”.
